Usually pIC50 stands for the IC50 on a negative log10 scale, so that one unit is a factor of ten.

Consider nine molecules from US11254651B2, “Histone methyltransferase inhibitors” (GLOBAL BLOOD THERAPEUTICS, INC., priority 2016, dated 2022).

SMILES strings stand for the structures. pIC50: −log10 of the molar value. Structures can show the parent of a compound that is named as a salt.

The target in one experiment is T1, G9a (Homo sapiens, UniProt Q96KQ7).
T1 sequence (Q96KQ7 1-1210): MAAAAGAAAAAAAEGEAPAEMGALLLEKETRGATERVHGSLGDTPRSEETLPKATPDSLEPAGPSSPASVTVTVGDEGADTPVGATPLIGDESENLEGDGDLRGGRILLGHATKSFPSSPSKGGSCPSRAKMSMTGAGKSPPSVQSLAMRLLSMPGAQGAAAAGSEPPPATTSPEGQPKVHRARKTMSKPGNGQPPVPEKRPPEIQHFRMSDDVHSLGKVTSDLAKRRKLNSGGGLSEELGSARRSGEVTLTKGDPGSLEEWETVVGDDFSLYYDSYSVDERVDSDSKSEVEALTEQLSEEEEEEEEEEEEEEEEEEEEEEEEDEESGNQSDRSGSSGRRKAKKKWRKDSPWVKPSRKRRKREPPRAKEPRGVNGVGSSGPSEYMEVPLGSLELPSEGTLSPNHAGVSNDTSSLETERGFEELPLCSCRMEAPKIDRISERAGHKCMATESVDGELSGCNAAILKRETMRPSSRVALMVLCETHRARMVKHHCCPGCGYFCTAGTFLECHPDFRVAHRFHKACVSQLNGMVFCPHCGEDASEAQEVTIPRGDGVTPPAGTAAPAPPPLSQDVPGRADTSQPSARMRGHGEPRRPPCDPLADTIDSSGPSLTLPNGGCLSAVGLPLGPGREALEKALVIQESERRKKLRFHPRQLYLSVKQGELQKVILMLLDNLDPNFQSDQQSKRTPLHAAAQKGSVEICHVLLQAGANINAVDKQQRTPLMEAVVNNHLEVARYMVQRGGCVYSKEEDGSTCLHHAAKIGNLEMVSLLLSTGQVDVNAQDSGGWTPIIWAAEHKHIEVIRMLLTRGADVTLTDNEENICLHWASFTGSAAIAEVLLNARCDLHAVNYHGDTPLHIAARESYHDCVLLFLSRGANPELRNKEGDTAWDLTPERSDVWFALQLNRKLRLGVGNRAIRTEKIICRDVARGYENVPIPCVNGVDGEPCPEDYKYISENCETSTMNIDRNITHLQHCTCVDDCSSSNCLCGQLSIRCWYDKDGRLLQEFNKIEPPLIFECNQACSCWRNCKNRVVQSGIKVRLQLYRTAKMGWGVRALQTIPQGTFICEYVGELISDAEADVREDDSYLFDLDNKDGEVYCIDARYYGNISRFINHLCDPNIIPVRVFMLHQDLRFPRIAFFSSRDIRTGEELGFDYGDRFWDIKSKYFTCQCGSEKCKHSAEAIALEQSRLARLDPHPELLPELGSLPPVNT
The experiment is described as follows: G9a AlphaLISA enzymatic activity assay. The settings on record: 0.15 nM G9a, 15 uM S-adenosyl-methionine, 100 nM biotinylated histone 3 peptide (1-21), 1 hour room temperature. It counts as biochemical. From the text: The G9a AlphaLISA assay was used to detect the methyl modifications of a biotinylated histone H3 peptide by the compounds. These modifications are done by the histone methyl transferase activity of the G9a enzyme. The assay consists of reading a chemiluminescent signal at 615 nm; this signal is generated by a laser excitation at 680 nm that transfers a reactive singlet oxygen between the donor beads and acceptor beads. Donor beads are streptavidin conjugated and bind to the biotin on the peptide. Acceptor beads are conjugated with an antibody that recognizes the specific G9a methyl mark on the peptide. If there is a methyl mark on the peptide, the acceptor beads will bind to the peptide. Upon binding, the acceptor beads will be in close proximity (<200 nm) of the donor beads and when the donor beads are excited, the transfer of the oxygen can occur and a strong signal will be generated. If there is no methyl mark, the interaction between beads will not occur and signal will be at background levels.
For the assay, the following buffer was used to set up reactions: 50 mM Tris-HCl pH9, 50 mM NaCl, 0.01% Tween-20 and 1 mM DTT (added fresh prior to starting the reactions). The assay is set up by adding a final concentration of 0.15 nM G9a, 15 uM S-adenosyl-methionine and, 100 nM biotinylated histone 3 peptide (1-21). The reaction is incubated at room temperature for 1 hour, and subsequently quenched by the addition of the acceptor beads (anti-H3k9me2 AlphaLISA acceptor beads, PerkinElmer #AL117) at a final concentration of 20 ug/mL. The acceptor beads are incubated for 1 hour. After 1 hour, the donor beads are added at a final concentration of 20 ug/mL (Alpha Streptavidin donor beads, PerkinElmer #6760002). Donor beads are incubated for 0.5 hours. Both donor and acceptor beads are resuspended in AlphaLISA 5X Epigenetics Buffer 1 Kit (PerkinElmer #AL008) prior to addition to the reaction. All manipulations and incubations with the donor and acceptor beads are done in subdued light. Signal is detected in an EnVision plate reader in Alpha mode (see ACS Med Chem Lett. 2014 Jan. 2; 5(2):205-9. doi: 10.1021/m1400496h. eCollection 2014. Discovery and development of potent and selective inhibitors of histone methyltransferase g9a.)
Percent inhibition was calculated for each compound dilution and the concentration that produced 50% inhibition was calculated. This value is presented as the IC50.
Background: Bead proximity is the source of the signal in Alpha formats.
Turning to `COc1cc2c(NC3CCOCC3)c3cc(C)ccc3nc2cc1OCCCN1CCCC1` [Entry 114, 2-methoxy-7-methyl-N-(oxan-4-yl)-3-[3-(pyrrolidin-1-yl)propoxy]acridin-9-amine formate], the negative logarithm of the IC50 (pIC50) is 7.27.
On the same count and under the same terms, the same measure for `COc1ccc2nc3cc(OCCCN4CCCC4)c(OC)cc3c(NC3CCOCC3)c2c1` [Entry 115, 2,7-dimethoxy-N-(oxan-4-yl)-3-[3-(pyrrolidin-1-yl)propoxy]acridin-9-amine trifluoroacetate]: 6.67.
`CNc1c2ccccc2nc2cc(OCCCN3CCC(F)C3)c(OC)cc12` (stereo not shown) [Entry 117, 3-[3-(3-fluoropyrrolidin-1-yl)propoxy]-2-methoxy-N-methylacridin-9-amine formate] showed a pIC50 of 6.86.
For `CNc1c2ccccc2nc2cc(OCCCN(C)C)c(OC)cc12` [Entry 119, 3-[3-(dimethylamino)propoxy]-2-methoxy-N-methylacridin-9-amine trifluoroacetate], the negative-log IC50 (pIC50) is 7.55.
Still for that read-out and setting: the same measure for `COc1cc2c(NC(C)C)c3cccc(F)c3nc2cc1OCCCN1CCCC1` [Entry 120, 5-fluoro-2-methoxy-N-(propan-2-yl)-3-[3-(pyrrolidin-1-yl)propoxy]acridin-9-amine formate]: 7.21; for `COc1cc2c(NC(C)C)c3cnccc3nc2cc1OCCCN1CCCC1` [Entry 121, 8-methoxy-N-(propan-2-yl)-7-[3-(pyrrolidin-1-yl)propoxy]benzo[b]1,6-naphthyridin-10-amine formate]: 7.19.
On the same count and under the same terms, the result for `COc1cc2c(NC(C)C)c3ncccc3nc2cc1OCCCN1CCCC1` [Entry 122, 8-methoxy-N-(propan-2-yl)-7-[3-(pyrrolidin-1-yl)propoxy]benzo[b]1,5-naphthyridin-10-amine formate] reads 7.62; that for `COc1cc2c(NCC(C)(C)O)c3cccnc3nc2cc1OCCCN1CCCC1` [Entry 123, 1-({7-methoxy-8-[3-(pyrrolidin-1-yl)propoxy]benzo[b]1,8-naphthyridin-5-yl}amino)-2-methylpropan-2-ol formate], 6.60.

The subject of another experiment is HGS tumor model. Briefly: anti-tumor activity in HGS tumor model. It counts as in vivo. The settings on record: animals treated with 20/kg of compound.
Source text: […]
As to `C=CC(=O)N1CCN(CCCn2c(=O)c(-c3c(Cl)c(OC)cc(OC)c3Cl)cc3cnc(NC)nc32)CC1` [8-(3-(4-acryloylpiperazin-1-yl)propyl)-6-(2,6-dichloro-3,5-dimethoxyphenyl)-2-(methylamino)pyrido[2,3-d]pyrimidin-7(8H)-one], the “antitumor activity” value is “significant antitumor activity and induced tumor regression”.

Staying with this experiment, now noted: animals treated with 20/kg of compound, day 42 after inoculation.
`C=CC(=O)N1CCN(CCCn2c(=O)c(-c3c(Cl)c(OC)cc(OC)c3Cl)cc3cnc(NC)nc32)CC1` [8-(3-(4-acryloylpiperazin-1-yl)propyl)-6-(2,6-dichloro-3,5-dimethoxyphenyl)-2-(methylamino)pyrido[2,3-d]pyrimidin-7(8H)-one] returned a tumor size of 55 mm3.
